Numbered stars: 1 amine (or outer) side, 2 acyl side, 3 side chain; on linkers, the order of the positions; unused ones are H or OH. Square brackets hold non-standard residues; d marks the D form. Peptide text beside a SMILES is read from it. * marks the point of attachment. ξ: configuration not given here. X2 = C#CCC(OC(=O)*)c1ccc(O[C@@H]2O[C@H](CO)[C@H](O)[C@H](O)[C@H]2O)c2cc(C(=O)O)oc12; X3 = C#CCC(OC(=O)*)c1ccc(O[C@@H]2O[C@H](CO)[C@H](O)[C@H](O)[C@H]2O)c2cc(C(=O)O)sc12; X1 = O=C(O)CCc1cc2c(O[C@@H]3O[C@H](CO)[C@H](O)[C@H](O)[C@H]3O)ccc(COC(=O)*)c2s1; Dil(5ξ) = CCC(C)[C@@H]([C@@H](CC(=O)[*:2])OC)N(C)[*:1]; Dolaproine = CO[C@@H]([C@@H]1CCCN1)[C@@H](C)C(=O)O; NMeV = CN[C@H](C(=O)O)C(C)C; ξF = NC(Cc1ccccc1)C(=O)O
Tests used:
[1] = Chemical stability in PBS buffer solution (pH 7.4); assay type: physicochemical; conditions: PBS buffer solution pH 7.4, 37° C., HPLC; read-out: Chemical stability t1/2
Method: The compounds of the present invention (A-5, A-8, A-9, A-11, A-12, A-14, A-15, A-16, A-19, A-23, A-24, A-35 and A-36) were each dissolved in DMSO to a concentration of 10 mM and then mixed with a PBS buffer solution (pH 7.4) to prepare as a solution having a concentration of 500 μM (5% DMSO). MPS, used as a standard substance, was also prepared as a solution having a concentration of 500 μM in a PBS buffer solution. 420 μL of a PBS buffer solution and 140 μL of each of 500 μM compounds of the present invention and MPS were mixed to prepare a total of 700 μL of reaction solution. The reaction of the mixed solution was initiated in a constant temperature incubator at 37° C. The reaction solution was aliquoted in an amount of 70 μL at 0 minutes before the reaction and at certain times after the reaction, and the remaining compounds of the present invention or MPS or the liberated MMAF were quantitatively analyzed using the HPLC method. […] In addition, the remaining amount of Compound A-19 in a PBS buffer solution (pH 7.4) according to the incubation time is shown in FIG. 4.

Mouse plasma stability = assay type: in vitro ADME; conditions: Method 1 (mouse plasma), 37° C., read-out: Plasma stability t1/2
Method: Method 1: Mouse Plasma Stability
(§1) The compounds of the present invention (A-5, A-9, A-14, A-19, A-35, A-36) and MPS, used as a standard substance, were each dissolved in DMSO and a PBS buffer solution to a concentration of 30 mM, and then mixed in mouse plasma (Biochemed, 029-APSC-PMG) to a final concentration of 300 μM (final 1.0% DMSO) and 600 μM of the compounds and MPS, respectively. The reaction of the mixed solution in plasma was initiated in a constant temperature incubator at 37° C. Before the reaction and on certain days after the reaction, the above samples were aliquoted in an amount of 100 μL, and 200 μL of acetonitrile (ACN, Sigma, SA-271004-1L) was added to terminate the reaction, mixed, and then vortexed for about 1 minute, and then centrifuged (Beckman, B30150) at 4° C. for 15 minutes at 14,000 rpm to precipitate plasma proteins. Each supernatant obtained by centrifugation was collected and quantitatively analyzed using the HPLC method.
(§2) The results of measuring the plasma half-life of the compounds of the present invention using Methods 1 to 4 above are shown in Table 3.

Human plasma stability = assay type: in vitro ADME; conditions: Method 2 (human plasma), 37° C., read-out: Plasma stability t1/2
Method: Method 2: Human Plasma Stability
as §1, with “(A-8,” for “(A-5,”, “human” for “mouse”, “752PR—SC-PMG)” for “029-APSC-PMG)”, “ACN” for “acetonitrile (ACN, Sigma, SA-271004-1L)”, “centrifuged” for “centrifuged (Beckman, B30150)”
as §2

[2] = Beagle dog plasma stability; assay type: in vitro ADME; conditions: Method 4 (beagle dog plasma), 37° C., read-out: Plasma stability t1/2
Method: Method 4: Beagle Dog Plasma Stability
as §1, with “(A-19,” for “(A-5, A-9, A-14, A-19, A-35,”, “beagle dog” for “mouse”, “014-APSC-PMG)” for “029-APSC-PMG)”, “ACN” for “acetonitrile (ACN, Sigma, SA-271004-1L)”, “centrifuged” for “centrifuged (Beckman, B30150)”
as §2

Rat plasma stability = assay type: in vitro ADME; conditions: Method 3 (rat plasma), 37° C., read-out: Plasma stability t1/2
Method: Method 3: Rat Plasma Stability
as §1, with “(A-19,” for “(A-5, A-9, A-14, A-19, A-35,”, “rat” for “mouse”, “031-APSC-PMG)” for “029-APSC-PMG)”, “ACN” for “acetonitrile (ACN, Sigma, SA-271004-1L)”, “centrifuged” for “centrifuged (Beckman, B30150)”
as §2

Row | SMILES | half-life at 100 µM [1] | half-life at 300 µM (Mouse plasma stability) | half-life at 300 µM (Human plasma stability) | half-life at 300 µM [2] | half-life at 300 µM (Rat plasma stability)
1 | CCC(C)[C@@H]([C@@H](CC(=O)N1CCC[C@H]1[C@H](OC)[C@@H](C)C(=O)NC(Cc1ccccc1)C(=O)O)OC)N(C)C(=O)[C@@H](NC(=O)[C@H](C(C)C)N(C)C(=O)OCc1cc2c(O[C@@H]3O[C@H](CO)[C@H](O)[C@H](O)[C@H]3O)ccc(COC(=O)N(C)[C@H](C(=O)N[C@H](C(=O)N(C)[C@@H](C(C)CC)[C@@H](CC(=O)N3CCC[C@H]3[C@H](OC)[C@@H](C)C(=O)NC(Cc3ccccc3)C(=O)O)OC)C(C)C)C(C)C)c2o1)C(C)C (some centres unmarked) [Compound A-24] | > 168 h |  |  |  | 
2 | C#CCC(OC(=O)N(C)[C@H](C(=O)N[C@H](C(=O)N(C)[C@@H](C(C)CC)[C@@H](CC(=O)N1CCC[C@H]1[C@H](OC)[C@@H](C)C(=O)NC(Cc1ccccc1)C(=O)O)OC)C(C)C)C(C)C)c1ccc(O[C@@H]2O[C@H](CO)[C@H](O)[C@H](O)[C@H]2O)c2cc(C(=O)O)oc12 (some centres unmarked) [Compound A-15] (X2-[NMeV]V[Dil(5ξ)][Dolaproine][ξF]-OH) | > 168 h |  |  |  | 
3 | C#CCC(OC(=O)N(C)[C@H](C(=O)N[C@H](C(=O)N(C)[C@@H](C(C)CC)[C@@H](CC(=O)N1CCC[C@H]1[C@H](OC)[C@@H](C)C(=O)NC(Cc1ccccc1)C(=O)O)OC)C(C)C)C(C)C)c1ccc(O[C@@H]2O[C@H](CO)[C@H](O)[C@H](O)[C@H]2O)c2cc(COC(=O)N(C)[C@H](C(=O)N[C@H](C(=O)N(C)[C@@H](C(C)CC)[C@@H](CC(=O)N3CCC[C@H]3[C@H](OC)[C@@H](C)C(=O)NC(Cc3ccccc3)C(=O)O)OC)C(C)C)C(C)C)oc12 (some centres unmarked) [Compound A-35] | > 168 h | > 168 h | > 168 h |  | 
4 | CCC(C)[C@@H]([C@@H](CC(=O)N1CCC[C@H]1[C@H](OC)[C@@H](C)C(=O)NC(Cc1ccccc1)C(=O)O)OC)N(C)C(=O)[C@@H](NC(=O)[C@H](C(C)C)N(C)C(=O)OCc1ccc(O[C@@H]2O[C@H](CO)[C@H](O)[C@H](O)[C@H]2O)c2cc(CCC(=O)O)sc12)C(C)C (some centres unmarked) [Compound A-5] (X1-[NMeV]V[Dil(5ξ)][Dolaproine][ξF]-OH) | > 168 h | > 168 h |  |  | 
5 | C#CCC(OC(=O)N(C)[C@H](C(=O)N[C@H](C(=O)N(C)[C@@H](C(C)CC)[C@@H](CC(=O)N1CCC[C@H]1[C@H](OC)[C@@H](C)C(=O)NC(Cc1ccccc1)C(=O)O)OC)C(C)C)C(C)C)c1ccc(O[C@@H]2O[C@H](CO)[C@H](O)[C@H](O)[C@H]2O)c2cc(C(=O)O)sc12 (some centres unmarked) [Compound A-11] (X3-[NMeV]V[Dil(5ξ)][Dolaproine][ξF]-OH) | > 168 h |  |  |  | 
6 | C#CCC(OC(=O)N(C)[C@H](C(=O)N[C@H](C(=O)N(C)[C@@H](C(C)CC)[C@@H](CC(=O)N1CCC[C@H]1[C@H](OC)[C@@H](C)C(=O)NC(Cc1ccccc1)C(=O)O)OC)C(C)C)C(C)C)c1ccc(O[C@@H]2O[C@H](CO)[C@H](O)[C@H](O)[C@H]2O)c2cc(CCC(=O)O)sc12 (some centres unmarked) [Compound A-12] | > 168 h |  |  |  | 
7 | C#CCC(OC(=O)N(C)[C@H](C(=O)N[C@H](C(=O)N(C)[C@@H](C(C)CC)[C@@H](CC(=O)N1CCC[C@H]1[C@H](OC)[C@@H](C)C(=O)N[C@H](C)[C@@H](O)c1ccccc1)OC)C(C)C)C(C)C)c1ccc(O[C@@H]2O[C@H](C(=O)O)[C@H](O)[C@H](O)[C@H]2O)c2cc(CCC(=O)O)[se]c12 (some centres unmarked) [Compound A-36] | > 168 h | > 168 h | > 168 h | > 168 h | > 168 h
8 | C#CCC(OC(=O)N(C)[C@H](C(=O)N[C@H](C(=O)N(C)[C@@H](C(C)CC)[C@@H](CC(=O)N1CCC[C@H]1[C@H](OC)[C@@H](C)C(=O)NC(Cc1ccccc1)C(=O)O)OC)C(C)C)C(C)C)c1ccc(O[C@@H]2O[C@H](CO)[C@H](O)[C@H](O)[C@H]2O)c2cc(CCCC(=O)O)oc12 (some centres unmarked) [Compound A-16] | > 168 h |  |  |  | 
9 | CCC(C)[C@@H]([C@@H](CC(=O)N1CCC[C@H]1[C@H](OC)[C@@H](C)C(=O)NC(Cc1ccccc1)C(=O)O)OC)N(C)C(=O)[C@@H](NC(=O)[C@H](C(C)C)N(C)C(=O)OCc1ccc(O[C@@H]2O[C@H](CO)[C@H](O)[C@H](O)[C@H]2O)c2cc(Cn3cc(COCCOCCOCCOC)nn3)sc12)C(C)C (some centres unmarked) [Compound A-8] | > 168 h |  | > 168 h |  | 
